# Biological target: T1, GluA1o-γ8 (Homo sapiens, UniProt P42261+Q8WXS5)
# T1 construct: expressed in transfected cells
# Test: Calcium flux assay (FLIPR), inhibition of glutamate response of GluA1o-γ8 channel in HEK293 cells
# Format: cell-based
# Conditions: HEK293 cells stably expressing GRIA1o-CACNG8 fusion; 15 μM glutamate; pIC50 = negative log of the IC50 in molar
# From the text: This assay was used to test compounds for their ability to inhibit TARP γ8 dependent AMPA receptor activity. The AMPA receptor is a non-selective cation channel activated by glutamate. Ionotropic glutamate receptors normally desensitize too rapidly to allow detectable calcium influx in a FLIPR assay (Strange et al. (2006). “Functional characterisation of homomeric ionotropic glutamate receptors GluR1-GluR6 in a fluorescence-based high throughput screening assay.” Comb Chem High Throughput Screen 9(2): 147-158). But, this desensitization is incomplete, and a substantial steady-state current remains in the sustained presence of glutamate (Cho et al. (2007). “Two families of TARP isoforms that have distinct effects on the kinetic properties of AMPA receptors and synaptic currents.” Neuron 55(6): 890-904).
# An in vitro assay was used to determine the potency of test compounds as inhibitors of the glutamate response of the channel formed by GluA1o-γ8. To ensure a 1:1 stoichiometry of GluA1o and γ8 subunits in the expressed channel, a fusion of the cDNAs for GRIA1o and CACNG8 was used. Following Shi et al (2009) “The stoichiometry of AMPA receptors and TARPs varies by neuronal cell type.” Neuron 62(5): 633-640), the C-terminus of the cDNA for GRIA1o was fused to the N-terminus of the cDNA for γ8. The linker sequence was QQQQQQQQQQEFAT. Channels expressed with this construct appear to have similar properties to channels formed by co-expression of GRIA1o with an excess of CACNG8 (Shi et al. 2009). A clonal cell line in HEK293 cells stably expressing this construct, with a geneticin selection marker, was generated for use in this assay. Cell expressing the GRIA1o-CACNG8 fusion construct were grown in a monolayer in 96- or 384-well microtiter plates. They were washed with assay buffer (135 mM NaCl, 4 mM KCl, 3 mM CaCl2, 1 mM MgCl2, 5 mM glucose, 10 mM HEPES, pH 7.4, 300 mOs) using a Biotek EL405 plate washer. The cells were then loaded with a calcium-sensitive dye (Calcium-5 or Calcium-6, Molecular Devices) and the test compounds at a range of concentrations. Calcium flux following the addition of 15 μM glutamate was monitored using a Molecular Devices FLIPR Tetra.
# The fluorescence in each well was normalized to the fluorescence of negative and positive control wells. The negative control wells had no added compounds, and the positive control wells had been incubated with 10 μM CP465022 (a non-subtype-selective AMPA receptor antagonist) (Lazzaro et al. (2002). “Functional characterization of CP-465,022, a selective, noncompetitive AMPA receptor antagonist.” Neuropharmacology 42(2): 143-153). The responses to glutamate as functions of the test compound concentrations were fitted to a four-parameter logistic function. The fitted parameter corresponding to the midpoint was taken to be the potency of inhibition of the compound. The data in Table 4 below illustrates the observed potentcy for the compounds described herein. pIC50 refers to the negative log of the IC50 in molar.
# T1 sequence (P42261+Q8WXS5 fused): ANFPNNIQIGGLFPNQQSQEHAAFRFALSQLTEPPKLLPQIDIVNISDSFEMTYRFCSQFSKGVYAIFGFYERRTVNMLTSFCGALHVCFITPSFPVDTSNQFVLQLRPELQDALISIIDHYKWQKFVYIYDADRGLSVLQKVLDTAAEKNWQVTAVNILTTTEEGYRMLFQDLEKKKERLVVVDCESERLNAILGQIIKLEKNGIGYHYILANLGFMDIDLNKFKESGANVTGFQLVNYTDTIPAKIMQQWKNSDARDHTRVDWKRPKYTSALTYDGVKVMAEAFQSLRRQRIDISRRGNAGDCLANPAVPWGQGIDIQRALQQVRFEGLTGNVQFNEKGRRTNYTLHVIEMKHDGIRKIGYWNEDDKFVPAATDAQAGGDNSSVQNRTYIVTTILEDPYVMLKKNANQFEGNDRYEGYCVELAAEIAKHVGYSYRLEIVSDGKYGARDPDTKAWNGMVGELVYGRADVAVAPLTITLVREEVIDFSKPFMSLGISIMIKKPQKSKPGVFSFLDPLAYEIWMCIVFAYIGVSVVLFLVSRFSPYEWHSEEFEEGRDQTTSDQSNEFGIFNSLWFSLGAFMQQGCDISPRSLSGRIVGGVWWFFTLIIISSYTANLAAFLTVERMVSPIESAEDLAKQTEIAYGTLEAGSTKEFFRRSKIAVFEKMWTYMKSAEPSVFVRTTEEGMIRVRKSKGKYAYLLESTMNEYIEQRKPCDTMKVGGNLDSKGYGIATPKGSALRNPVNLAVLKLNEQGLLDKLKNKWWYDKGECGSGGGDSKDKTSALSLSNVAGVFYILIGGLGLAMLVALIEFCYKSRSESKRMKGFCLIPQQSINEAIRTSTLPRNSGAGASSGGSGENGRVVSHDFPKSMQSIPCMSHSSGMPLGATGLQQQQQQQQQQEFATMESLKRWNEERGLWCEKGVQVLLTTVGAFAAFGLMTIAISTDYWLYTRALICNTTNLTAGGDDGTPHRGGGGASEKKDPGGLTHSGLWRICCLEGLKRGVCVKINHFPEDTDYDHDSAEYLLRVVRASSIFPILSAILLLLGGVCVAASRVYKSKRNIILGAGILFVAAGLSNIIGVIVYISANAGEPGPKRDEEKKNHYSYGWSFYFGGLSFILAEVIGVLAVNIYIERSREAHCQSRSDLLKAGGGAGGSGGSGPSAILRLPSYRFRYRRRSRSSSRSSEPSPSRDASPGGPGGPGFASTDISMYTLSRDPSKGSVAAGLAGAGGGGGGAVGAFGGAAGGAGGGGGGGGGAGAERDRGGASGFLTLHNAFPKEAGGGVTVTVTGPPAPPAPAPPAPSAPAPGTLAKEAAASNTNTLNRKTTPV
row,Structure (SMILES),GluR1-γ8 pIC50
1,"O=C1Cc2cc(-c3c(Cl)cccc3OC(F)(F)F)ccc2N1 [Example 5, 5-[2-Chloro-6-(trifluoromethoxy)phenyl]indolin-2-one]",7.8
2,"Cc1cc(-c2c(Cl)cccc2OC(F)(F)F)cc2c1NC(=O)C2 [Example 127, 5-[2-Chloro-6-(trifluoromethoxy)phenyl]-7-methyl-indolin-2-one]",9.7
3,"Cc1cccc(C)c1-c1ccc2c(c1)CC(=O)N2 [Example 1, 5-(2,6-Dimethylphenyl)indolin-2-one]",6.4

# Same assay, conditions: HEK293 cells stably expressing GRIA1o-CACNG8 fusion; 15 μM glutamate; pIC50 = negative log of the IC50 in molar; read-out: GluR1-γ8 pIC50 (converted)
row,IC50 [nM],Structure (SMILES)
1,3.16,"Cc1cc(-c2c(Cl)ccnc2Cl)cc2c1NC(=O)C2 [Example 152, 5-(2,4-Dichloro-3-pyridyl)-7-methyl-indolin-2-one]"
2,0.0631,"Cc1cccc(Cl)c1-c1cc(Cl)c2c(c1)CC(=O)N2 [Example 165, 7-Chloro-5-(2-chloro-6-methyl-phenyl)indolin-2-one]"
3,10,"Cc1cc(-c2c(C)cncc2C)cc2c1NC(=O)C2 [Example 148, 5-(3,5-Dimethyl-4-pyridyl)-7-methyl-indolin-2-one]"
4,3.16,"O=C1Cc2cc(-c3c(Cl)cccc3OC(F)(F)F)cc(F)c2N1 [Example 117, 5-(2-Chloro-6-(trifluoromethoxy)phenyl)-7-fluoroindolin-2-one]"
5,100,"Cc1cccc(Cl)c1-c1ccc2c(c1)CC(=O)N2 [Example 3, 5-(2-Chloro-6-methyl-phenyl)indolin-2-one]"
6,5.01,"Cc1cc(-c2c(F)cccc2OC(F)F)cc2c1NC(=O)C2 [Example 131, 5-[2-(Difluoromethoxy)-6-fluoro-phenyl]-7-methyl-indolin-2-one]"
7,316,"O=C1Cc2cc(-c3c(Cl)cncc3Cl)cc(F)c2N1 [Example 126, 5-(3,5-Dichloro-4-pyridyl)-7-fluoro-indolin-2-one]"
8,25.1,"O=C1Cc2cc(-c3c(Cl)cccc3Br)ccc2N1 [Example 2, 5-(2-Bromo-6-chlorophenyl)indolin-2-one]"
9,12.6,"Cc1cc(-c2c(Cl)cnc(C(F)(F)F)c2Cl)cc2c1NC(=O)C2 [Example 144, 5-(3,5-Dichloro-2-(trifluoromethyl)pyridin-4-yl)-7-methylindolin-2-one]"
10,1.58,"O=C1Cc2cc(-c3c(Cl)ccnc3Cl)cc(Cl)c2N1 [Example 163, 7-Chloro-5-(2,4-dichloro-3-pyridyl)indolin-2-one]"
11,1,"Cc1cc(-c2c(Cl)cccc2OC(F)F)cc2c1NC(=O)C2 [Example 128, 5-[2-Chloro-6-(difluoromethoxy)phenyl]-7-methyl-indolin-2-one]"
12,31.6,"COc1nccc(C)c1-c1cc(C)c2c(c1)CC(=O)N2 [Example 150, 5-(2-Methoxy-4-methyl-3-pyridyl)-7-methyl-indolin-2-one]"
13,15.8,"CCc1cc(-c2c(C)cncc2C)cc2c1NC(=O)C2 [Example 173, 5-(3,5-Dimethyl-4-pyridyl)-7-ethyl-indolin-2-one]"
14,0.251,"CCc1cc(-c2c(C)cccc2Cl)cc2c1NC(=O)C2 [Example 170, 5-(2-Chloro-6-methyl-phenyl)-7-ethyl-indolin-2-one]"
15,5.01,"Cc1cc(-c2c(Cl)cccc2C#N)cc2c1NC(=O)C2 [Example 143, 3-Chloro-2-(7-methyl-2-oxoindolin-5-yl)benzonitrile]"
16,0.0501,"CCc1cc(-c2c(Cl)cccc2OC(F)(F)F)cc2c1NC(=O)C2 [Example 168, 5-[2-Chloro-6-(trifluoromethoxy)phenyl]-7-ethyl-indolin-2-one]"
17,15.8,"O=C1Cc2cc(-c3c(Cl)cccc3OC(F)F)cc(F)c2N1 [Example 118, 5-(2-Chloro-6-(difluoromethoxy)phenyl)-7-fluoroindolin-2-one]"
18,251,"Cc1cncc(C)c1-c1cc(F)c2c(c1)CC(=O)N2 [Example 125, 5-(3,5-Dimethyl-4-pyridyl)-7-fluoro-indolin-2-one]"
19,1.58,"Cc1cccc(C#N)c1-c1cc(Cl)c2c(c1)CC(=O)N2 [Example 164, 2-(7-Chloro-2-oxo-indolin-5-yl)-3-methyl-benzonitrile]"

row,IC50 [nM],Structure (SMILES)
1,3.16,"CCc1cc(-c2c(C)cccc2C#N)cc2c1NC(=O)C2 [Example 169, 2-(7-Ethyl-2-oxo-indolin-5-yl)-3-methyl-benzonitrile]"
2,0.316,"O=C1Cc2cc(-c3c(Cl)cccc3OC(F)F)cc(Cl)c2N1 [Example 154, 7-Chloro-5-[2-chloro-6-(difluoromethoxy)phenyl]indolin-2-one]"
3,6.31,"O=C1Cc2cc(-c3c(Cl)cncc3OC(F)(F)F)cc(Cl)c2N1 [Example 157, 7-Chloro-5-(3-chloro-5-(trifluoromethoxy)pyridin-4-yl)indolin-2-one]"
4,3.16,"Cc1cc(-c2c(C)cccc2OC(F)F)cc2c1NC(=O)C2 [Example 129, 5-[2-(Difluoromethoxy)-6-methyl-phenyl]-7-methyl-indolin-2-one]"
5,0.2,"O=C1Cc2cc(-c3c(Cl)cccc3OC(F)(F)F)cc(OC(F)(F)F)c2N1 [Example 177, 5-[2-Chloro-6-(trifluoromethoxy)phenyl]-7-(trifluoromethoxy)indolin-2-one]"
6,12.6,"N#Cc1ccc(Cl)c(-c2ccc3c(c2)CC(=O)N3)c1OC(F)(F)F [Example 115, 4-Chloro-3-(2-oxoindolin-5-yl)-2-(trifluoromethoxy)benzonitrile]"
7,15.8,"Cc1cc(-c2c(C)ccnc2Cl)cc2c1NC(=O)C2 [Example 149, 5-(2-Chloro-4-methyl-3-pyridyl)-7-methyl-indolin-2-one]"
8,3.16,"Cc1cc(-c2c(C)cccc2F)cc2c1NC(=O)C2 [Example 136, 5-(2-Fluoro-6-methyl-phenyl)-7-methyl-indolin-2-one]"
9,6310,"COC1CCN(c2cccc(-c3ccc4c(c3)CC(=O)N4)c2Cl)CC1 [Example 179, 5-[2-Chloro-3-(4-methoxy-1-piperidyl)phenyl]indolin-2-one]"
10,12.6,"N#Cc1ccc(OC(F)(F)F)c(-c2cc(F)c3c(c2)CC(=O)N3)c1Cl [Example 124, 2-Chloro-3-(7-fluoro-2-oxo-indolin-5-yl)-4-(trifluoromethoxy)benzonitrile]"
11,7.94,"O=C1Cc2cc(-c3c(Cl)cncc3OC(F)F)cc(Cl)c2N1 [Example 158, 7-Chloro-5-[3-chloro-5-(difluoromethoxy)-4-pyridyl]indolin-2-one]"
12,631,"Cc1cc(-c2c(C)ccnc2C)cc2c1NC(=O)C2 [Example 151, 5-(2,4-Dimethyl-3-pyridyl)-7-methyl-indolin-2-one]"
13,0.794,"Cc1cccc(F)c1-c1cc(Cl)c2c(c1)CC(=O)N2 [Example 166, 7-Chloro-5-(2-fluoro-6-methyl-phenyl)indolin-2-one]"
14,79.4,"CC(C)(C#N)c1cccc(Cl)c1-c1ccc2c(c1)CC(=O)N2 [Example 81, 2-[3-Chloro-2-(2-oxoindolin-5-yl)phenyl]-2-methyl-propanenitrile]"
15,7.94,"Cc1cc(-c2c(Cl)cncc2Cl)cc2c1NC(=O)C2 [Example 147, 5-(3,5-Dichloro-4-pyridyl)-7-methyl-indolin-2-one]"
16,3.16,"Cc1cc(-c2c(Cl)cncc2OC(F)(F)F)cc2c1NC(=O)C2 [Example 145, 5-[3-Chloro-5-(trifluoromethoxy)-4-pyridyl]-7-methyl-indolin-2-one]"
17,0.0794,"O=C1Cc2cc(-c3c(Cl)cccc3OC(F)(F)F)cc(Cl)c2N1 [Example 153, 7-Chloro-5-[2-chloro-6-(trifluoromethoxy)phenyl]indolin-2-one]"
18,15800,"Cc1cccc(OC(F)F)c1-c1cc(F)c2c(c1)CC(=O)N2 [Example 122, 5-[2-(Difluoromethoxy)-6-methyl-phenyl]-7-fluoro-indolin-2-one]"
19,0.501,"Cc1cc(-c2c(Cl)cccc2C(C)(C)C#N)cc2c1NC(=O)C2 [Example 132, 2-[3-Chloro-2-(7-methyl-2-oxo-indolin-5-yl)phenyl]-2-methyl-propanenitrile]"
